Measured values as given in US8614182B2 (Jiangsu Hansoh Pharmaceuticals Co., Ltd., priority 2009, dated 2013).
Non-standard residues stand in square brackets, D forms with d. Residues, ends and D or L forms follow the SMILES beside them. *: point of attachment. εLys(Nα-Palmitoyl) = CCCCCCCCCCCCCCCC(=O)N[C@@H](CCCCN*)C(=O)O

Experiments:
[1] = molecular target: T1, Glucagon-like peptide-1 receptor (GLP1R) (Homo sapiens, UniProt P43220); assay: Agonist activity on GLP1R, cAMP response element luciferase reporter gene in HEK293 cells; format: cell-based; details: HEK293 cells stably transfected with GLP1R and pCRE-Luc, 5 hours incubation; read-out: Maximum reaction rate
T1 construct: expressed in transfected cells; host or cells: HEK293
From the text: GLP1R is a receptor coupled with Gs protein, of which the binding with the agonists will result in an increase of intracellular cAMP concentration. In the present experiment, GLP1R and the luciferase reporter gene plasmid regulated by cAMP response elements are co-transfected into HEK293 cells. When the compound binds to the receptor and activates the receptors, the expression of the luciferase will increase. The activation status of the compound to GLP1R can be learned by testing the activity of the luciferase.
2. The compounds or positive drugs having a certain concentration gradient were added (3 wells per concentration) and incubated at 37° C. for 5 hours. The negative control was solvent DMSO.
3. 50 μl culture medium was taken from each well, and 50 μl of the luciferase substrate were added and vortexed for 10 minutes.
4. 80 μl reaction solution was taken and transferred to a white 96 well plate, then detected on the Invision microplate reader (enzyme-labelling measuring instrument).

[2] = tested on: db/db mice with type 2 diabetes; assay: Random blood glucose of db/db mice after single subcutaneous injection; format: in vivo; details: for random blood glucose: n = 8; for decrease rate of random blood glucose: versus control group
Description: db/db mice with type 2 diabetes were divided into six groups based on a random blood glucose and body weight (8 per group). […] The random blood glucose of the mice is determined at differete time after administration.
Preparation method: 1 bottle of the compound (2 mg/bottle) was dissolved with double-distilled water to prepare a colorless and transparent solution of which the concentration is 2 mg/mL. […] “ACCU-CHEK® Advantage” blood glucose meter form Roche was used to determine the blood glucose.
Route and volume of administration: Single subcutaneous injection dose, dose volume was 5 mL/kg. […]
The random blood glucoses of db/db mice were measured.
Each group has 8 mice, half male and half female. The animals of each group were administered with the test compounds or solvent control respectively through single subcutaneous injection.

T1 sequence (P43220 24-463, species assumed): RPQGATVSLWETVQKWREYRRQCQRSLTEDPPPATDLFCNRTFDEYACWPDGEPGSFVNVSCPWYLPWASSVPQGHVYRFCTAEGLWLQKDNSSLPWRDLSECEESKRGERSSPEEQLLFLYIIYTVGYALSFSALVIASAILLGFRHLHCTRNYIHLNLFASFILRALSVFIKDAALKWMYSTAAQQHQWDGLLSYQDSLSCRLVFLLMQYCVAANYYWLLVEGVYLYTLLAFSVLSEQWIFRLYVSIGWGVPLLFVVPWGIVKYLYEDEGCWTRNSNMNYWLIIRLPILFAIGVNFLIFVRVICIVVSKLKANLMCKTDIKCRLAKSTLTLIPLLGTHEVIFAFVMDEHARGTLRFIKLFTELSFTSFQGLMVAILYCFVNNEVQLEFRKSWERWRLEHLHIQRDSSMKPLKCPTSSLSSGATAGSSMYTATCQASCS

## CCCCCCCCCCCCCCCC(=O)N[C@@H](CCCCNC(=O)[C@H](CO)NC(=O)[C@@H]1CCCN1C(=O)[C@@H]1CCCN1C(=O)[C@@H]1CCCN1C(=O)[C@H](C)NC(=O)CNC(=O)[C@H](CO)NC(=O)[C@H](CO)NC(=O)[C@@H]1CCCN1C(=O)CNC(=O)CNC(=O)[C@H](CCCNC(=N)N)NC(=O)[C@@H](NC(=O)[C@H](CC(C)C)NC(=O)[C@H](Cc1c[nH]c2ccccc12)NC(=O)[C@H](C)NC(=O)[C@@H](NC(=O)[C@H](Cc1ccccc1)NC(=O)[C@H](CCC(=O)O)NC(=O)[C@H](CCCCN)NC(=O)[C@H](C)NC(=O)[C@H](C)NC(=O)[C@H](CCC(=O)O)NC(=O)[C@H](CCC(=O)O)NC(=O)[C@H](CCC(=O)O)NC(=O)[C@H](CC(C)C)NC(=O)[C@H](Cc1ccc(O)cc1)NC(=O)[C@H](CO)NC(=O)[C@H](CO)NC(=O)[C@@H](NC(=O)[C@H](CC(=O)O)NC(=O)[C@H](CO)NC(=O)[C@@H](NC(=O)[C@H](Cc1ccccc1)NC(=O)[C@@H](NC(=O)CNC(=O)[C@H](CCC(=O)O)NC(=O)[C@@H](C)NC(=O)[C@@H](N)Cc1c[nH]cn1)[C@@H](C)O)[C@@H](C)O)C(C)C)[C@@H](C)CC)C(C)C)C(=O)O [HS-20003] (H-H[dA]EGTFTSDVSSYLEEEAAKEFIAWLVRGGPSSGAPPPS-{εLys(Nα-Palmitoyl)}; N-terminus and C-terminus assumed)
[1]
  Emax: 87.9%
[2]; 3 μg/kg single s.c., 1 h after administration, X ± s
  random blood glucose: 19.56 ± 1.19 mmol/L
[2]; 3 μg/kg single s.c., 1 h after administration
  decrease rate of random blood glucose: 17.33%
[2]; 3 μg/kg single s.c., 2 h after administration, X ± s
  random blood glucose: 19.44 ± 1.48 mmol/L
[2]; 3 μg/kg single s.c., 2 h after administration
  decrease rate of random blood glucose: 14.09%
[2]; 3 μg/kg single s.c., 4 h after administration, X ± s
  random blood glucose: 19.63 ± 1.12 mmol/L
[2]; 3 μg/kg single s.c., 4 h after administration
  decrease rate of random blood glucose: 10.80%
[2]; 3 μg/kg single s.c., 8 h after administration, X ± s
  random blood glucose: 22.59 ± 1.05 mmol/L
[2]; 3 μg/kg single s.c., 8 h after administration
  decrease rate of random blood glucose: 11.03%
[2]; 3 μg/kg single s.c., after 2 h, 4 h and 8 h
  random blood glucose values compared with those of the control group: no significant difference
[2]; 3 μg/kg single s.c., after one hour, P<0.05
  random blood glucose values compared with those of the control group: decreased significantly
[2]; 3 μg/kg single s.c., before administration, X ± s
  random blood glucose: 25.16 ± 1.49 mmol/L
[2]; 10 μg/kg single s.c., 1 h after administration
  decrease rate of random blood glucose: 23.62%
[2]; 10 μg/kg single s.c., 1 h after administration, ± s
  random blood glucose: 20.74 ± 0.98 mmol/L
[2]; 10 μg/kg single s.c., 2 h after administration
  decrease rate of random blood glucose: 25.93%
[2]; 10 μg/kg single s.c., 2 h after administration, ± s
  random blood glucose: 21.10 ± 0.80 mmol/L
[2]; 10 μg/kg single s.c., 4 h after administration
  decrease rate of random blood glucose: 36.49%
[2]; 10 μg/kg single s.c., 4 h after administration, ± s
  random blood glucose: 19.54 ± 1.80 mmol/L
[2]; 10 μg/kg single s.c., 8 h after administration
  decrease rate of random blood glucose: 26.12%
[2]; 10 μg/kg single s.c., 8 h after administration, ± s
  random blood glucose: 22.14 ± 2.16 mmol/L
[2]; 10 μg/kg single s.c., 24 h after administration
  decrease rate of random blood glucose: 11.89%
[2]; 10 μg/kg single s.c., 24 h after administration, ± s
  random blood glucose: 24.45 ± 1.55 mmol/L
[2]; 10 μg/kg single s.c., after 2 h, 4 h and 8 h
  random blood glucose values compared with those of the control group: still keep at a lower level
[2]; 10 μg/kg single s.c., after 24 hours
  random blood glucose values compared with those of the control group: no significant difference
[2]; 10 μg/kg single s.c., after one hour, P<0.01
  random blood glucose values compared with those of the control group: decreased significantly
[2]; 10 μg/kg single s.c., before administration, ± s
  random blood glucose: 23.20 ± 1.36 mmol/L
[2]; single s.c., dose of 3 μg/kg (so in the source)
  random blood glucose level (words, test conclusions): decreased obviously

## CCCCCCCCCCCCCCCC(=O)N[C@@H](CCCCNC(=O)[C@H](CO)NC(=O)[C@@H]1CCCN1C(=O)[C@@H]1CCCN1C(=O)[C@@H]1CCCN1C(=O)CNC(=O)CNC(=O)[C@H](CCCCN)NC(=O)[C@H](CCCCN)NC(=O)CNC(=O)[C@H](CCCNC(=N)N)NC(=O)CNC(=O)[C@H](CCCCN)NC(=O)[C@@H](NC(=O)[C@H](CC(C)C)NC(=O)[C@H](Cc1c[nH]c2ccccc12)NC(=O)[C@@H](NC(=O)[C@@H](NC(=O)[C@H](Cc1ccccc1)NC(=O)[C@H](CCC(=O)O)NC(=O)[C@H](C)NC(=O)[C@H](C)NC(=O)[C@H](CCC(N)=O)NC(=O)CNC(=O)[C@H](CCC(=O)O)NC(=O)[C@H](CC(C)C)NC(=O)[C@H](Cc1ccc(O)cc1)NC(=O)[C@H](CO)NC(=O)[C@H](CO)NC(=O)[C@@H](NC(=O)[C@H](CC(=O)O)NC(=O)[C@H](CO)NC(=O)[C@@H](NC(=O)[C@H](Cc1ccccc1)NC(=O)[C@@H](NC(=O)CNC(=O)[C@H](CCC(=O)O)NC(=O)[C@H](C)NC(=O)[C@@H](N)Cc1c[nH]cn1)[C@@H](C)O)[C@@H](C)O)C(C)C)[C@@H](C)CC)C(C)C)C(C)C)C(=O)O [HS-20005]
[1]
  Emax: 89.1%

## CCCCCCCCCCCCCCCC(=O)N[C@@H](CCCCNC(=O)[C@H](CO)NC(=O)[C@@H]1CCCN1C(=O)[C@@H]1CCCN1C(=O)[C@@H]1CCCN1C(=O)CNC(=O)CNC(=O)[C@H](CCCCN)NC(=O)[C@H](CCCCN)NC(=O)CNC(=O)[C@H](CCCNC(=N)N)NC(=O)CNC(=O)[C@H](CCCCN)NC(=O)[C@@H](NC(=O)[C@H](CC(C)C)NC(=O)[C@H](Cc1c[nH]c2ccccc12)NC(=O)[C@@H](NC(=O)[C@@H](NC(=O)[C@H](Cc1ccccc1)NC(=O)[C@H](CCC(=O)O)NC(=O)[C@H](C)NC(=O)[C@H](C)NC(=O)[C@H](CCC(N)=O)NC(=O)[C@H](CCC(=O)O)NC(=O)[C@H](CCC(=O)O)NC(=O)[C@H](CC(C)C)NC(=O)[C@H](Cc1ccc(O)cc1)NC(=O)[C@H](CO)NC(=O)[C@H](CO)NC(=O)[C@@H](NC(=O)[C@H](CC(=O)O)NC(=O)[C@H](CO)NC(=O)[C@@H](NC(=O)[C@H](Cc1ccccc1)NC(=O)[C@@H](NC(=O)CNC(=O)[C@H](CCC(=O)O)NC(=O)[C@H](C)NC(=O)[C@@H](N)Cc1c[nH]cn1)[C@@H](C)O)[C@@H](C)O)C(C)C)[C@@H](C)CC)C(C)C)C(C)C)C(=O)O [HS-20007]
[1]
  Emax: 87%
